We go through three molecules from USRE38423E1, “Process for in vitro analysis of toxic and allergenic substances” (Biovator Technologies AB, priority 1995, dated 2004).

Data set [1] deals with human whole blood. As to the kind of experiment: Proliferation assay, 3H-thymidine incorporation in diluted whole blood cultures. Conditions: for Prolif. Index (3H-Thymidine Proliferation): blood from 5 normal humans, highest value at any time or concentration, related to medium control given the value 100; for proliferative response (in words): summary of results, 3H-thymidine incorporation. It is filed as cell-based. How it is done: (§1) Five healthy blood donors from both sexes ranging in age between 25 and 55 years are used. Blood is collected by venous puncture into endotoxin free heparin tubes (Coatech, Ljungby, Sweden) that contains 120 IU heparin and are filled with 4 ml of blood. None of the blood donors are allowed to have a history of allergy or atopic excema or any indication of ongoing disease of any kind.
(§2) 100 ul of blood is added to the wells of Nunclon microtiter plates.
(§3) For substances to be tested for effects in the system different concentration are added to the blood. The highest concentration of the substance being non toxic to the cells indicated by inspection in microscopic in presence of vital stain e.g. trypan blue is used as start concentration.
(§4) The microtiter plates are incubated at 37° C. at 90% humidity and with 5% CO2. An appropriate number of identical plates are prepared and are taken out of the incubator for testing at intervals of, 1 day, 2 days and 6 days.
One set of plates is used to estimate the proliferative activity of the donor cells spontaneously (=medium or substance dissolved controls); in response to PHA, and in response to samples of test substances at various concentrations. The highest concentration of sub-stance non toxic to the cells indicated by inspection in microscope in presence of vital stain (e.g. trypan blue) is used as start concentration. Ser. dilutions of the sub-stance is then performed as stated above.
The plates were incubated for additional 4 hours at 37° C. The cells were then collected using a Skatron cell harvester (Skatron, Lier, Norway) and Titertek paper filters. The result of his procedure is that the DNA of the cells is stuck in the filter paper, whereas the ^3H-thymidin not incorporated in the DNA passes through the filter and goes with the waste washing water. The radioactivity in the filter papers is thus proportional to the DNA synthesis that occured during the 4 hours preceding the harvesting procedure. The radiactivity of the filter papers is determined in a Packard liquid scintillation counter, and thymidine incorporation was expressed as counts per minute (cpm).
(§5) The highest value as compared to medium control obtained at any time or concentration for each substance is used as indicator value in the table and related to medium control put to value 100 index.
On the technique in general: Incorporation of labelled thymidine or its analogues reports DNA synthesis.

In data set [2] the test system is human whole blood. Type of data set: cell-based. The following applies: for IFNγ / IL-1 / IL-2 / IL-4 / IL-6 / IL-8 / IL-10 / Neopterin / SCD8 / STL-2R / TNF: blood from 5 normal humans, highest value at any time or concentration, related to medium control given the value 100. Also on record: key to IL-1 / IFNγ / Neopterin / TNF / IL-6 / IL-8 / IL-2 / STL-2R / SCD8 / IL-10 / IL-4: index relative to medium control = 100. Here is the method: as §1, §2, §3, §4
Another set of plates is prepared with the same design as in “Culture protocol” above. Cytokines released from the cultured cells are measured in the supernatants obtained after centrifugation of the plates at 650 g for 10 minutes. The supernatants were either tested immediately or stored at −20° C. until tested.
The instructions of the manufacturers were followed. All these tests are enzyme immunoassays (EIA:s). The principle is that microtiter plate wells are labeled with a cytokine specific capture antibody. If cytokine is present in the samples added to the wells it will be captured to the bottom of the well. […] The reaction is thereafter measured as colour developed after addition of a substrate for the enzyme. The values for the test wells is compared with a standard curve obtained by adding a series of known amounts of cytokine. The values obtained for control wells with no substance added are used as background values for cytokine levels and proliferation as measured by ^3H-thymidin incorporation. Positive indications are recorded when values above 2 SD of the variation of the controls are obtained.
as §5

[3] abbreviates: summary of results, secreted into supernatants.

Consider `[Cl][Ni][Cl]` [IV, Nickel chloride], for which, in the data set with human whole blood [1], the “Prolif. Index (3H-Thymidine Proliferation)” value (from here on “Prolif. Index”) is reported as 1340 and the “proliferative response (in words)” value is reported as “low proliferative response”. In the data set with human whole blood [2], this molecule came in with an IFNγ of 1220, an IL-1 of 1165, an IL-2 of 445 and an IL-4 of 80. In the data set on human whole blood [2], this molecule returned an IL-6 of 660, an IL-8 of 380, an IL-10 of 800 and a Neopterin of 90. Besides, in the data set on human whole blood [2], the SCD8 is reported as 110, the STL-2R is listed as 130 and the TNF was 225. In the data set with human whole blood [2] (setting [3]), the “Neopterin induction (in words)” value is given as “no Neopterin”; the “immune lymphocyte class / specific immune response cytokines induced (in words)” value was “IFN-gamma, IL-2 and IL-10”; the “unspecific inflammatory / tissue toxic group cytokines induced (in words)” value is “IL-1, IL-6, TNF and IL-8”.
For the molecule Triton X-100, in the data set with human whole blood [1], the “Prolif. Index” value is listed as 200 and the “proliferative response (in words)” value is “induced proliferation”. In the data set with human whole blood [2], this molecule gave an IFNγ of 120, an IL-1 of 630, an IL-2 of 85 and an IL-4 of 85. In the data set on human whole blood [2], this molecule returned an IL-6 of 460, an IL-8 of 200, an IL-10 of 95 and a Neopterin of 110. Moreover, in the data set on human whole blood [2], the SCD8 was 95, the STL-2R is recorded as 115 and the TNF was 400. For the same molecule, the “predicted adverse reaction from cytokine pattern (in words)” value in the data set with human whole blood [2] (interpretation of the cytokine profile) is “positive tissue irritant”. For the same molecule, in the data set with human whole blood [2] (setting [3]), the “unspecific inflammatory / tissue toxic group cytokines induced (in words)” value was “IL-1, IL-6 and TNF”.
With phytohemagglutinin [Plus], in the data set with human whole blood [1], the “Prolif. Index” value worked out at 2600 and the “proliferative response (in words)” value is “strong proliferative response”. Besides, in the data set on human whole blood [2], the IFNγ is 800, the IL-1 is recorded as 690, the IL-2 came to 750 and the IL-4 was 820. For the same molecule, in the data set on human whole blood [2], the IL-6 was found to be 1620, the IL-8 came out at 780, the IL-10 was 1250 and the Neopterin is 440. Further, in the data set with human whole blood [2], the SCD8 is 940, the STL-2R is 1820 and the TNF amounted to 420. Also, in the data set on human whole blood [2] (setting [3]), the “immune lymphocyte class / specific immune response cytokines induced (in words)” value was “neopterin, IFN-gamma IL-2 and IL-4 and IL-10”; the “unspecific inflammatory / tissue toxic group cytokines induced (in words)” value was “IL-1, IL-6, TNF and IL-8”.
